According to patent US6482837B1 (priority 1998, dated 2002):
Like-named read-outs stand apart in the source and are kept apart here.

Experiments:
[1] = human, in vivo; cited from earlier work
[2] = human, in vivo
[3] = target: M3 receptor (Homo sapiens, UniProt P20309); conditions: cited from earlier work
[4] = test system: muscarinic receptors in heart and submaxillary gland; conditions: in vivo, iv; cited from earlier work
[5] = in vivo; cited from earlier work
[6] = test system: Guinea pig detrusor; assay type: cell-based
[7] = test system: tracheal rings; assay type: cell-based, guinea pig
[8] = test system: lung; conditions: iv
[9] = test system: muscarinic receptors; conditions: human, in vivo, cited from earlier work
[10] = test system: miniature swine bladder; conditions: in vivo
[11] = test system: muscarinic receptors; conditions: dog, in vivo; cited from earlier work
[12] = test system: guinea pig bladder; conditions: in vivo; cited from earlier work
[13] = test system: M3 versus M1 and M2 receptors; conditions: cited from earlier work
[14] = test system: guinea pig bladder; conditions: in vivo; cited from earlier work; remark: listed apart in the source

M3 receptor, sequence (P20309 whole entry): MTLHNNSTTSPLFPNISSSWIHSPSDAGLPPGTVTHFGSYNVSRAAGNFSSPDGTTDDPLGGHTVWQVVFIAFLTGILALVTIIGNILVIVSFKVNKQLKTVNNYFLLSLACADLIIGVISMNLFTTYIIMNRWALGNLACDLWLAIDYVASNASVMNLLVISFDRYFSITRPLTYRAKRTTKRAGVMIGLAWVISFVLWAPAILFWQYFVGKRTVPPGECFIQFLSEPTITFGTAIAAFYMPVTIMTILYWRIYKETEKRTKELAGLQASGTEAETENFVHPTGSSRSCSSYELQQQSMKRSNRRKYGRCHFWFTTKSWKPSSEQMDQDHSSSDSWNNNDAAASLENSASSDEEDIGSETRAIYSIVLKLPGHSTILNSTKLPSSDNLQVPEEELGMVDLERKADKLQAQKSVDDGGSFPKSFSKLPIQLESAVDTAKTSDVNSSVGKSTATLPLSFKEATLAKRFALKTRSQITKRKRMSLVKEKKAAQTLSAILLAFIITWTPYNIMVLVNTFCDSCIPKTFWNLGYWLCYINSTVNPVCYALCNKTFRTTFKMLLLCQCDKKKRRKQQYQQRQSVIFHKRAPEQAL

CC(CC(c1ccccc1)c1ccccc1)NC(C)(C)C (centres unmarked) [terodiline, Terodiline]
Bladder volume at first urge and bladder capacity [1]: increased | micturition frequency and incontinence episodes [1]: reduced

O=C1OC2(c3ccc(O)cc3Oc3cc(O)ccc32)c2ccccc21 [fluorescein]
absorbed from the bladder [2]: About 50%

O[Si](CCCN1CCCCC1)(c1ccc(F)cc1)C1CCCCC1 (centres unmarked) [p-F-HHSiD]
Ki ([3]; read-out: Ki): 0.028 µM

O=C(OC1CCN(CCBr)CC1)C(c1ccccc1)c1ccccc1 [4-DAMP bromo mustard, N-(2-bromoethyl)-4-piperidinyl diphenylacetate]
receptors alkylated in both the heart and submaxillary gland [4]: more than 95%

CN1[C@@H]2CC[C@H]1C[C@@H](OC(=O)C(CO)c1ccccc1)C2 (some centres unmarked) [atropine]
accumulation in the heart blocked by preinjection [5]: 89%

COC(=O)C1=CC[C@@H]2CC[C@H]1N2C [AEME, Anhydroecgonine methyl ester]
recovery of response to ACh after repeated washings [6]: did not recover | response of tissue to 10^−4M ACh [6]: reduced response of tissue | response to a range of ACh concentrations (up to 2×10^−3M) [6]: attenuated | reversal of attenuation by washing [6]: not reversed | cholinergic agonist activity [7]: lacked cholinergic agonist activity | levels at which antimuscarinic properties on tracheal rings were observed (as low as) [7]: 10^−9 M | sensitization to ACh produced by cocaine at 5×10^−6 M [7]: reduced the sensitization | type of muscarinic activity in vitro [7]: potent non-competitive muscarinic antagonist | safety ([8]; in vivo): wide margin of safety | anticholinergic effects in the lung in vivo [8]: more sustained and dramatic than anticipated

COc1ccccc1CNCCCCCCNCCCCCCCCNCCCCCCNCc1ccccc1OC [methoctramine]
Ki [3]: 0.408 µM

C[N+]12CCC(CC1)C(OC(=O)C(O)(c1ccccc1)c1ccccc1)C2 (centres unmarked) [MeQNB, methyl quinuclidinyl benzilate]
rate constant of nonspecific binding [9]: 0.03 min⁻¹ | Kd ([9]; read-out: equilibrium dissociation constant kd): 0.002 ± 0.0005 µM | Body Temp increase ° C. [10]: 0 °C | Heart rate % increase [10]: 0% | activity relative to oxybutynin ([10]; iv): about 10 fold | rate constant k+1 [11]: 1e+07 ± 1.7e+06 M⁻¹ s⁻¹ | rate constant k−1 [11]: 4.5e+06 ± 500000 M⁻¹ s⁻¹

3-(4-benzylpiperazinyl)-1,1-diphenyl-1-hydroxy-2-propanone
separation between bladder function and effect on mydriasis [12]: 20 fold | separation between bladder function and effect on salivation [12]: 41 fold | selective for M3 versus M1 [13]: 18 fold | selective for M3 versus M2 receptors [13]: 242 fold

CN(C)CC#CCCC(=O)C(O)(c1ccccc1)C1CCC1 (centres unmarked) [14b, 1-cyclobutyl-7-(dimethylamino)-1-hydroxy-1-phenyl-5-heptyn-2-one]
duration of action relative to oxybutynin [14]: 5 fold
